These results are taken from ChEMBL document CHEMBL1136977, “Carbonic anhydrase activators. Activation of the membrane-associated isoform XV with amino acids and amines” (Bioorg Med Chem Lett, 2009).

In series [1] the target is T1, Carbonic anhydrase 15 (Mus musculus) (UniProt Q99N23).
T1 sequence (whole entry): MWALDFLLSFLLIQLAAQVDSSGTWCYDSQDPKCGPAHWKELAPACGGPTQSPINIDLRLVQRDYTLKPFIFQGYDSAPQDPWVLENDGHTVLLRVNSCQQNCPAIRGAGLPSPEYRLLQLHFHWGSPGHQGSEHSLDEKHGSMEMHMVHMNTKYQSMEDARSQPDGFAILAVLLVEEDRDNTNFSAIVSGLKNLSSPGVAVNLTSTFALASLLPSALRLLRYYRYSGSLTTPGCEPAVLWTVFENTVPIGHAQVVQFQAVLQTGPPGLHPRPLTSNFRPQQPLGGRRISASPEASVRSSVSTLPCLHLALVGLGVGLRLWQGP
The series can be described thus: Activation of membrane associated mouse recombinant carbonic anhydrase 15 isoform by stopped-flow CO2 hydrase method.

The target of series [2] is Carbonic anhydrase 4 (Homo sapiens) (UniProt P22748). Description: Activation of human recombinant carbonic anhydrase 4 lacking 20 amino terminal residues by stopped-flow CO2 hydrase method.
Carbonic anhydrase 4 (Homo sapiens), sequence (P22748 whole entry): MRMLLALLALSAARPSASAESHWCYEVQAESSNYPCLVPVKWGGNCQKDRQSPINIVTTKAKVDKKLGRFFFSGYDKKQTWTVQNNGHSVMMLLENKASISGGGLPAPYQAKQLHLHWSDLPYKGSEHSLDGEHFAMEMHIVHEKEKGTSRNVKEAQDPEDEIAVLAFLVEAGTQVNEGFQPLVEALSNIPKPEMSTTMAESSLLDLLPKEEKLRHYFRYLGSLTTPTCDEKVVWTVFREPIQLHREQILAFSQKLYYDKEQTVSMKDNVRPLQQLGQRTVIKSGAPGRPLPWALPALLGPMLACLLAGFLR
Substrate in series [3]: N[C@H](Cc1c[nH]cn1)C(=O)O
The series can be described thus: (§1) Activity of membrane associated mouse recombinant carbonic anhydrase 15 isoform.

Substrate in series [4]: N[C@@H](Cc1c[nH]cn1)C(=O)O
Described as §1.

With `Nc1ccc(C[C@H](N)C(=O)O)cc1`, the values for the KA in series [1] and in series [2] were 16.3 µM and 0.079 µM, respectively.

On to `NCCN1CCNCC1`, for which the results for the KA in series [1] and in series [2] were 10.4 µM and 24.9 µM, respectively.

On to `NCCN1CCOCC1`, for which the KA in series [1] worked out at 9.3 µM; in series [2], 1.3 µM.

For `N[C@@H](Cc1c[nH]c2ccccc12)C(=O)O`, the results for the KA in series [1] and in series [2] were 13.5 µM and 37.1 µM, respectively.

Regarding `N[C@H](Cc1ccc(O)c(O)c1)C(=O)O`, the KA turned out to be 4 µM in series [1] and 34.7 µM in series [2].

`NCCc1c[nH]c2ccc(O)cc12`: the KA in series [1] came out at 7.5 µM; in series [2] it was 3.14 µM.

Consider `NCCc1ccccn1`, for which the KA in series [1] is 11.9 µM; in series [2] it was 7.13 µM.

`NCc1ccccn1`: the values for the KA in series [1] and in series [2] were 11.6 µM and 5.19 µM, respectively.

For `NCCc1c[nH]cn1`, the KA in series [1] turned out to be 18.5 µM; in series [2] it was 25.3 µM.

As for `N[C@@H](Cc1c[nH]cn1)C(=O)O`, the figures for the KA in series [1] and in series [2] were 32.1 µM and 7.3 µM, respectively.

Regarding `N[C@H](Cc1c[nH]c2ccccc12)C(=O)O`, the results for the KA in series [1] and in series [2] were 8.7 µM and 39.6 µM, respectively.

In the case of `N[C@H](Cc1c[nH]cn1)C(=O)O`, the KA amounted to 14.1 µM in series [1] and 12.3 µM in series [2].

For the molecule `NCCc1ccc(O)c(O)c1`, the KA in series [1] was determined as 7.1 µM; in series [2] it was 30.9 µM.

Consider `CNC[C@@H](O)c1ccc(O)c(O)c1`, for which the KA is 6.9 µM in series [1] and 45 µM in series [2].

With `N[C@@H](Cc1ccc(O)c(O)c1)C(=O)O`, the KA in series [1] was determined as 6.5 µM; in series [2], 15.3 µM.

As to `N[C@@H](Cc1ccc(O)cc1)C(=O)O`, the KA was found to be 8.9 µM in series [1] and 25.1 µM in series [2].

B1: Carbonic anhydrase 15 (Mus musculus), Q99N23 (protein)
chain: T1 sequence (whole entry)
For the molecule B1, the figures for the kcat in series [3] and in series [4] were 15 ×10⁵ /s and 8.5 ×10⁵ /s, respectively.
